Experimental data as given in patent US20260159536A1, “AKR1C3-ACTIVATED DNA ALKYLATING AGENT, AND MEDICAL APPLICATION THEREOF” (ASCENTAWITS PHARMACEUTICALS, LTD., priority 2021, published 2026).
Like-named read-outs stand apart in the source and are kept apart here.

Legend:
[1] = system: HuPrime model LI6664 human liver cancer; assay: In vivo pharmacodynamics, liver cancer LI6664 PDX model; set-up: species or system BALB/c nude mice; conditions: for Relative tumor volume (x ± S) / Tumor volume (x ± S): mean ± standard error; for Tumor volume (x ± S): in mm³ (unit assumed)
Method: Experiment Instruction: BALB/c nude mice were subcutaneously inoculated with HuPrime® model LI6664 tumor blocks to establish a subcutaneous transplantation tumor model of human liver cancer. […] Among them, 7.5% anhydrous ethanol+7.5% polyoxyethylene (35) castor oil+85% glucose injection D5W (pH 7.4) vehicle control group was administered by tail vein once a week for 3 consecutive weeks; test drug AST-3424 0.3 mg/kg and 1 mg/kg groups were administered by tail vein injection once a day for 5 consecutive days, followed by 2 days off, followed by 2 weeks off, and then continuously administered for 5 consecutive days; the test drug AST-3424 1.25 mg/kg group was administered by tail vein injection once a week for 2 consecutive weeks, followed by one week off, and then continuously administered for 2 consecutive weeks, Compound A 0.5 mg/kg, 1.5 mg/kg, and 4.5 mg/kg groups were administered by tail vein injection once a week for three consecutive weeks, followed by 1 week off, and then administered for three consecutive weeks. […] The efficacy was evaluated according to the relative tumor inhibition rate TGI (%), and the safety was evaluated according to the change in body weight and the death of the animals.

[2] = system: CAL12T; assay: AKR1C3-dependent cytotoxicity, NSCLC cell line CAL12T; assay type: cell-based; conditions: Homo sapiens, CAL-12T
Method: (§1) The tested compound was then added. The compound was dissolved in 100% DMSO at 200 times of the desired final test concentration. When the medicament was added, the compound was further diluted to 4 times of the desired final test concentration by using the complete medium. 50 μL of aliquots of the compound with specific concentration were added to the microwells containing 150 μL of medium, and then the final medicament concentration was obtained. […] The medicament was then washed. […] After the incubation was finished, the Alamar Blue was used to analyze and quantify the living cells.

[3] = system: NCI-H2110; assay: AKR1C3-dependent cytotoxicity, NSCLC cell line NCI-H2110; assay type: cell-based
Method: as §1

[4] = system: HuPrime model LI6643 human liver cancer; assay: In vivo pharmacodynamics, liver cancer LI6643 PDX model (Compound A, Sorafenib, AST-3424; section 4.7); set-up: species or system BALB/c nude mice; conditions: for Tumor volume (x ± S): in mm³
Method: Experiment Instruction: BALB/c nude mice were subcutaneously inoculated with HuPrime® model LI6643 tumor blocks to establish a subcutaneous grafted tumor model of human liver cancer. […] The efficacy was evaluated according to the relative tumor inhibition rate TGI (%), and the safety was evaluated according to the change in body weight and the death of the animals.

[5] = system: H460 cancer cells; assay: H460 proliferation in the presence or absence of AKR1C3 inhibitor AST-3021 (Alamar Blue); assay type: cell-based, human; conditions: for IC50: Homo sapiens, NCI-H460, H460, 2 hours exposure
Method: as §1

[6] = 0.3 mg/kg i.v. QDx5, 2 days off, 2 weeks off, QDx5, Day 21
[7] = 1.25 mg/kg i.v. QWx2, 1 week off, QWx2, Day 21
[8] = AST-3424 1 mg/kg i.v. QDx5, 2 days off, 2 weeks off, QDx5, Day 21

C[C@@H](OP(=O)(N1CC1)N1CC1)c1ccc([N+](=O)[O-])c(Oc2cccc(C(=O)N(C)C)c2)c1 [AST-3424]
relative tumor inhibition rate TGI (%) ([1]; 0.3 mg/kg i.v. QDx5, 2 days off, 2 weeks off, QDx5, Day 28): 45.85%
relative tumor inhibition rate TGI (%) ([1]; 1 mg/kg i.v. QDx5, 2 days off, 2 weeks off, QDx5, Day 28): 65.05%
relative tumor inhibition rate TGI (%) ([1]; 1.25 mg/kg i.v. QWx2, 1 week off, QWx2, Day 28): 52.42%
T/C (%) ([1]; AST-3424 0.3 mg/kg, Day 28): 54.15%
Relative tumor volume (x ± S) ([1]; AST-3424 0.3 mg/kg, Day 28): 6.99 ± 1.31
Tumor volume (x ± S) ([1]; AST-3424 0.3 mg/kg, Day 28): 746.71 ± 130.55
T/C (%) ([1]; AST-3424 1 mg/kg, Day 28): 34.95%
Relative tumor volume (x ± S) ([1]; AST-3424 1 mg/kg, Day 28): 4.51 ± 1.21
Tumor volume (x ± S) ([1]; AST-3424 1 mg/kg, Day 28): 463.09 ± 99.32
T/C (%) ([1]; AST-3424 1.25 mg/kg, Day 28): 47.58%
Relative tumor volume (x ± S) ([1]; AST-3424 1.25 mg/kg, Day 28): 6.14 ± 0.94
Tumor volume (x ± S) ([1]; AST-3424 1.25 mg/kg, Day 28): 687.95 ± 147.16
Size of tumor volume ([1]; Group3, AST-3424 0.3 mg/kg, Day 0): 108.20 mm^3
Size of tumor volume ([1]; Group3, AST-3424 0.3 mg/kg, Day 4): 162.32 mm^3
Size of tumor volume ([1]; Group3, AST-3424 0.3 mg/kg, Day 7): 177.51 mm^3
Size of tumor volume ([1]; Group3, AST-3424 0.3 mg/kg, Day 11): 208.59 mm^3
Size of tumor volume ([1]; Group3, AST-3424 0.3 mg/kg, Day 14): 306.95 mm^3
Size of tumor volume ([1]; Group3, AST-3424 0.3 mg/kg, Day 18): 391.40 mm^3
Size of tumor volume ([1]; Group3, AST-3424 0.3 mg/kg, Day 21): 499.34 mm^3
Size of tumor volume ([1]; Group3, AST-3424 0.3 mg/kg, Day 25): 631.08 mm^3
Size of tumor volume ([1]; Group3, AST-3424 0.3 mg/kg, Day 28): 746.71 mm^3
Size of tumor volume ([1]; Group3, AST-3424 0.3 mg/kg, Day 32): 958.09 mm^3
Size of tumor volume ([1]; Group3, AST-3424 0.3 mg/kg, Day 35): 1059.71 mm^3
Size of tumor volume ([1]; Group3, AST-3424 0.3 mg/kg, Day 39): 1226.51 mm^3
Size of tumor volume ([1]; Group3, AST-3424 0.3 mg/kg, Day 42): 1094.69 mm^3
Size of tumor volume ([1]; Group3, AST-3424 0.3 mg/kg, Day 46): 1268.82 mm^3
Size of tumor volume ([1]; Group3, AST-3424 0.3 mg/kg, Day 49): 1486.77 mm^3
Size of tumor volume ([1]; Group4, AST-3424 1 mg/kg, Day 0): 107.53 mm^3
Size of tumor volume ([1]; Group4, AST-3424 1 mg/kg, Day 4): 131.59 mm^3
Size of tumor volume ([1]; Group4, AST-3424 1 mg/kg, Day 7): 145.23 mm^3
Size of tumor volume ([1]; Group4, AST-3424 1 mg/kg, Day 11): 158.03 mm^3
Size of tumor volume ([1]; Group4, AST-3424 1 mg/kg, Day 14): 233.54 mm^3
Size of tumor volume ([1]; Group4, AST-3424 1 mg/kg, Day 18): 291.97 mm^3
Size of tumor volume ([1]; Group4, AST-3424 1 mg/kg, Day 21): 371.35 mm^3
Size of tumor volume ([1]; Group4, AST-3424 1 mg/kg, Day 25): 438.00 mm^3
Size of tumor volume ([1]; Group4, AST-3424 1 mg/kg, Day 28): 463.09 mm^3
Size of tumor volume ([1]; Group4, AST-3424 1 mg/kg, Day 32): 622.48 mm^3
Size of tumor volume ([1]; Group4, AST-3424 1 mg/kg, Day 35): 748.13 mm^3
Size of tumor volume ([1]; Group4, AST-3424 1 mg/kg, Day 39): 929.60 mm^3
Size of tumor volume ([1]; Group4, AST-3424 1 mg/kg, Day 42): 1226.79 mm^3
Size of tumor volume ([1]; Group4, AST-3424 1 mg/kg, Day 46): 1496.83 mm^3
Size of tumor volume ([1]; Group4, AST-3424 1 mg/kg, Day 49): 1717.60 mm^3
Size of tumor volume ([1]; Group5, AST-3424 1.25 mg/kg, Day 0): 108.46 mm^3
Size of tumor volume ([1]; Group5, AST-3424 1.25 mg/kg, Day 4): 174.65 mm^3
Size of tumor volume ([1]; Group5, AST-3424 1.25 mg/kg, Day 7): 210.25 mm^3
Size of tumor volume ([1]; Group5, AST-3424 1.25 mg/kg, Day 11): 222.97 mm^3
Size of tumor volume ([1]; Group5, AST-3424 1.25 mg/kg, Day 14): 291.02 mm^3
Size of tumor volume ([1]; Group5, AST-3424 1.25 mg/kg, Day 18): 361.03 mm^3
Size of tumor volume ([1]; Group5, AST-3424 1.25 mg/kg, Day 21): 467.94 mm^3
Size of tumor volume ([1]; Group5, AST-3424 1.25 mg/kg, Day 25): 581.63 mm^3
Size of tumor volume ([1]; Group5, AST-3424 1.25 mg/kg, Day 28): 687.95 mm^3
Size of tumor volume ([1]; Group5, AST-3424 1.25 mg/kg, Day 32): 746.71 mm^3
Size of tumor volume ([1]; Group5, AST-3424 1.25 mg/kg, Day 35): 871.84 mm^3
Size of tumor volume ([1]; Group5, AST-3424 1.25 mg/kg, Day 39): 1081.64 mm^3
Size of tumor volume ([1]; Group5, AST-3424 1.25 mg/kg, Day 42): 1307.36 mm^3
Size of tumor volume ([1]; Group5, AST-3424 1.25 mg/kg, Day 46): 1675.14 mm^3
Size of tumor volume ([1]; Group5, AST-3424 1.25 mg/kg, Day 49): 1923.31 mm^3
weight loss ([1]; mouse, in vivo): no weight loss
IC50 [2]: 0.0291 µM
IC50 [3]: 0.0011 µM
Relative tumor volume (x ± S) [4, 6]: 1.92 ± 0.2
T/C (%) [4, 6]: 39.84%
TGI (%) [4, 6]: 60.16%
Tumor volume (x ± S) [4, 6]: 250.47 ± 44.00
Tumor volume ([4]; 0.3 mg/kg i.v., Day 0): 124.74 mm^3
Tumor volume ([4]; 0.3 mg/kg i.v., Day 3): 210.50 mm^3
Tumor volume ([4]; 0.3 mg/kg i.v., Day 7): 242.31 mm^3
Tumor volume ([4]; 0.3 mg/kg i.v., Day 10): 227.43 mm^3
Tumor volume ([4]; 0.3 mg/kg i.v., Day 14): 208.00 mm^3
Tumor volume ([4]; 0.3 mg/kg i.v., Day 17): 223.43 mm^3
Tumor volume ([4]; 0.3 mg/kg i.v., Day 21): 250.47 mm^3
Tumor volume ([4]; 0.3 mg/kg i.v., Day 24): 302.15 mm^3
Tumor volume ([4]; 0.3 mg/kg i.v., Day 28): 386.93 mm^3
Relative tumor volume (x ± S) [4, 7]: 1.36 ± 0.22
T/C (%) [4, 7]: 28.14%
TGI (%) [4, 7]: 71.86%
Tumor volume (x ± S) [4, 7]: 169.64 ± 41.89
Tumor volume ([4]; 1.25 mg/kg i.v., Day 0): 124.62 mm^3
Tumor volume ([4]; 1.25 mg/kg i.v., Day 3): 205.56 mm^3
Tumor volume ([4]; 1.25 mg/kg i.v., Day 7): 217.23 mm^3
Tumor volume ([4]; 1.25 mg/kg i.v., Day 10): 216.04 mm^3
Tumor volume ([4]; 1.25 mg/kg i.v., Day 14): 187.94 mm^3
Tumor volume ([4]; 1.25 mg/kg i.v., Day 17): 176.52 mm^3
Tumor volume ([4]; 1.25 mg/kg i.v., Day 21): 169.64 mm^3
Tumor volume ([4]; 1.25 mg/kg i.v., Day 24): 174.54 mm^3
Tumor volume ([4]; 1.25 mg/kg i.v., Day 28): 146.31 mm^3
Relative tumor volume (x ± S) [4, 8]: 0.66 ± 0.22
T/C (%) [4, 8]: 13.68%
TGI (%) [4, 8]: 86.32%
Tumor volume (x ± S) [4, 8]: 75.89 ± 21.82
Tumor volume ([4]; AST-3424 1 mg/kg i.v., Day 0): 124.32 mm^3
Tumor volume ([4]; AST-3424 1 mg/kg i.v., Day 3): 156.70 mm^3
Tumor volume ([4]; AST-3424 1 mg/kg i.v., Day 7): 144.82 mm^3
Tumor volume ([4]; AST-3424 1 mg/kg i.v., Day 10): 110.44 mm^3
Tumor volume ([4]; AST-3424 1 mg/kg i.v., Day 14): 90.12 mm^3
Tumor volume ([4]; AST-3424 1 mg/kg i.v., Day 17): 97.62 mm^3
Tumor volume ([4]; AST-3424 1 mg/kg i.v., Day 21): 75.89 mm^3
Tumor volume ([4]; AST-3424 1 mg/kg i.v., Day 24): 89.34 mm^3
Tumor volume ([4]; AST-3424 1 mg/kg i.v., Day 28): 98.43 mm^3
IC50 ([5]; AST-3021 3 micromolar, read-out: IC50 With the addition of AST-3021): 0.0449 µM
IC50 ([5]; no AKR1C3 inhibitor, read-out: IC50 Without the addition of AST-3021): 0.000349 µM
Fold ([5]; IC50 with AST-3021 over IC50 without): 128.71
